Assay results from ChEMBL document CHEMBL1126308, “Alfred Burger Award address. A half century in medicinal chemistry with major emphasis on pain-relieving drugs and their antagonists” (1992).
Active and inactive are the calls of the source. The calls are words filed in the database; no cut-off is given here.

What was measured:
Monkey [1] = test: Antagonistic potency of the compound; not active; assay type: functional, organism-based; details: Cercopithecidae
Monkey [2] = test: Physical dependence capacity (PDC) of the compound; intermed physical dependence capacity; assay type: functional, organism-based; details: Cercopithecidae
Monkey [3] = test: Physical dependence capacity (PDC) of the compound; no physical dependence capacity; assay type: functional, organism-based; details: Cercopithecidae
[4] = molecular target: Mu-type opioid receptor (Rattus norvegicus) (UniProt P33535); test: Ratio between the ED50 values in presence and absence of sodium; value ranges from 3.8-5; assay type: functional; details: Mus musculus
Mus musculus [5] = organism: Mus musculus; test: Compound was evaluated for the hotplate analgesic activity in mouse; assay type: functional; set-up: unit not given here
Mus musculus [6] = organism: Mus musculus; test: Compound was evaluated for the inhibition of [3H]naloxone binding to mouse brain homogenate at 1 nM in the presence of 100 mM sodium; ED50 = 1500-2000 nM; assay type: functional
Mus musculus [7] = organism: Mus musculus; test: (§1) Compound was evaluated for the inhibition of [3H]naloxone binding to mouse brain homogenate at 1 nM in the absence of sodium; assay type: functional
Monkey [8] = test: Analgesic activity in monkeys.; assay type: functional, Cercopithecidae
Mus musculus [9] = organism: Mus musculus; test: Ratio between the ED50 values in presence and absence of sodium; value ranges from […]; assay type: functional
Mus musculus [10] = organism: Mus musculus; test: Compound was evaluated for the inhibition of [3H]naloxone binding to mouse brain homogenate at 1 nM in the presence of 100 mM sodium; ED50 = […] nM; assay type: functional
Mus musculus [11] = organism: Mus musculus; test: Compound was evaluated for the hotplate analgesic activity; assay type: functional
[12] = molecular target: Mu-type opioid receptor (Mus musculus) (UniProt P42866); test: Compound was evaluated for the inhibition of [3H]naloxone binding to opioid receptor mu mouse brain homogenate at 1 nM in the presence of 100 mM sodium; ED50 = 40-50 nM; assay type: tissue-based
Mus musculus [13] = organism: Mus musculus; test: Ratio between the ED50 values in presence and absence of sodium; value ranges from 2-2.5; assay type: functional
[14] = molecular target: Mu-type opioid receptor (Mus musculus) (UniProt P42866); test: Compound was evaluated for the inhibition of [3H]naloxone binding to opioid receptor mu of mouse brain homogenate at 1 nM in the absence of sodium; assay type: tissue-based
Monkey [15] = test: Physical dependence capacity (PDC) of the compound; low physical dependence capacity; assay type: functional, organism-based; details: Cercopithecidae
Monkey [16] = test: aAntagonistic potency of the compound; not active; assay type: functional, organism-based; details: Cercopithecidae
Monkey [17] = test: Physical dependence capacity (PDC) of the compound; high physical dependence capacity; assay type: functional, organism-based; details: Cercopithecidae
Mus musculus [18] = organism: Mus musculus; test: Compound was evaluated for the hotplate analgesic activity; IA=inactive; assay type: functional, organism-based
[19] = molecular target: Mu-type opioid receptor (Mus musculus) (UniProt P42866); test: Compound was evaluated for the inhibition of [3H]naloxone binding to opioid receptor mu of mouse brain homogenate at 1 nM in the presence of 100 mM sodium; ED50=600-700 nM; assay type: tissue-based
[20] = molecular target: Mu-type opioid receptor (Mus musculus) (UniProt P42866); test: as §1; assay type: tissue-based
Mus musculus [21] = organism: Mus musculus; test: Ratio between the ED50 values in presence and absence of sodium; value ranges from 1.2-1.5; assay type: functional
Mus musculus [22] = organism: Mus musculus; test: Ratio between the ED50 values in presence and absence of sodium; assay type: functional
[23] = molecular target: Mu-type opioid receptor (Mus musculus) (UniProt P42866); test: Compound was evaluated for the inhibition of [3H]-naloxone binding to mouse brain homogenate at 1 nM in the presence of 100 mM sodium; assay type: tissue-based
Mus musculus [24] = organism: Mus musculus; test: (§2) Compound was evaluated for the inhibition of [3H]naloxone binding to mouse brain homogenate at 1 nM in the presence of 100 mM sodium; assay type: functional
Monkey [25] = test: Physical dependence capacity (PDC) of the compound; very low physical dependence capacity; assay type: functional, organism-based; details: Cercopithecidae
[26] = molecular target: Mu-type opioid receptor (Mus musculus) (UniProt P42866); test: as §2; assay type: tissue-based
[27] = molecular target: Mu-type opioid receptor (Mus musculus) (UniProt P42866); test: Compound was evaluated for the inhibition of [3H]naloxone binding to mouse brain homogenate at 1 nM in the absence of sodium; ED50 = 7-10 nM; assay type: tissue-based
[28] = molecular target: Mu-type opioid receptor (Mus musculus) (UniProt P42866); test: Ratio between the ED50 values in presence and absence of sodium; value ranges from 7-10
Mus musculus [29] = organism: Mus musculus; test: Ratio between the ED50 values in presence and absence of sodium; value ranges from 4-5; assay type: functional
Mus musculus [30] = organism: Mus musculus; test: Compound was evaluated for the inhibition of [3H]naloxone binding to mouse brain homogenate at 1 nM in the presence of 100 mM sodium; ED50 = 800-1000 nM; assay type: functional
[31] = Cercopithecidae, in Primates, read-out: ED50

Mu-type opioid receptor (Mus musculus), sequence (P42866 whole entry): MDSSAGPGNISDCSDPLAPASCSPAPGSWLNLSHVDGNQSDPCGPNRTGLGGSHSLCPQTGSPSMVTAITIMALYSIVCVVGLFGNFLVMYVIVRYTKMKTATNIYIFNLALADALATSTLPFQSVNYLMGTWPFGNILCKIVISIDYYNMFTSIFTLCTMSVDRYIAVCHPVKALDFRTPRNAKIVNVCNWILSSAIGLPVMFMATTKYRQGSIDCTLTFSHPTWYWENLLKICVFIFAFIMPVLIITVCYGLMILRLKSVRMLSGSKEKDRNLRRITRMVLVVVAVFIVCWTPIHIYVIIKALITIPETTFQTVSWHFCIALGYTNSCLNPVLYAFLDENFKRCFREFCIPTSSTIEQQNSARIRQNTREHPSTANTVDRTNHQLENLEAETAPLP
Mu-type opioid receptor (Rattus norvegicus), sequence (P33535 whole entry): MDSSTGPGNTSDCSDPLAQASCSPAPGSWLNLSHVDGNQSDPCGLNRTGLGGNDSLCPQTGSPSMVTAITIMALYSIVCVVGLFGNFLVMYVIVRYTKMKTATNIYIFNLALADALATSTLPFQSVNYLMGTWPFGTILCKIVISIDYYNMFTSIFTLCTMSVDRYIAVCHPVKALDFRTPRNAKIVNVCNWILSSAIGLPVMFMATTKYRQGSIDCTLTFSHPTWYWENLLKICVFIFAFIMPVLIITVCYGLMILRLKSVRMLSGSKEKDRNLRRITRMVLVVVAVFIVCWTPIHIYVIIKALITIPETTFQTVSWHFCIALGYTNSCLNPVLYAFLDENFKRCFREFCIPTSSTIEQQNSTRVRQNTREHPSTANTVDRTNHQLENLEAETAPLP

`CC[C@H]1C2Cc3ccc(O)cc3[C@]1(CC)CCN2C` was tested, and the Antagonist potency (Monkey [1]) was “inactive”, the PDC (Monkey [2]) was “intermed physical dependence capacity” and the PDC (Monkey [3]) was “intermed physical dependence capacity”.

With `CCC(=O)C1(c2cccc(O)c2)CCN(CC)CC1` the Ratio [4] was 3.8, the ED50 (Mus musculus [5]) was 67.2 and the ED50 (Mus musculus [6]) was 1500 nM. It also gave an ED50 (Mus musculus [7]) of 400 nM.

`CN1CC[C@@H]2CC1Cc1ccc(O)cc12` gave an ED50 (Monkey [8]; [31]) of 4.5 mg/kg.

Work on `CC1C2Cc3ccc(O)cc3[C@@H]1CCN2C` (stereo in doubt; form 2) yielded an ED50 (Monkey [8]) of 4.3 mg/kg.

`CCCCN1CCC(C(=O)CC)(c2cccc(O)c2)CC1` was tested, and the ED50 (Mus musculus [5]) was 4.6, the Ratio (Mus musculus [9]) was 12 and the ED50 (Mus musculus [7]) was 50 nM. It also gave an ED50 (Mus musculus [10]) of 600 nM.

Work on `CC1C2Cc3ccc(O)cc3[C@]1(C)CCN2C` (stereo in doubt; form 1) yielded an ED50 (Monkey [8]) of 0.1 mg/kg.

Work on `CCCCCCCN1CCC(C(=O)CC)(c2cccc(O)c2)CC1` yielded an ED50 (Mus musculus [11]) of 9000 nM, an ED50 [12] of 40 nM and a Ratio (Mus musculus [13]) of 2. The ED50 [14] was 20 nM.

For `CC[C@]12CCN(C)C(Cc3ccc(O)cc31)C2`, the Antagonist potency (Monkey [1]) was “inactive”, the PDC (Monkey [15]) was “low physical dependence capacity” and the PDC (Monkey [3]) was “low physical dependence capacity”.

With `CN1CC[C@]2(C)CC1Cc1ccc(O)cc12` (stereo in doubt; form 3) [listing 1 of 2 here] the PDC (Monkey [3]) was “no physical dependence capacity”.

For `C[C@H]1C2Cc3ccc(O)cc3[C@]1(C)CCN2C`, the Antagonist potency (Monkey [1]) was “inactive”, the ED50 (Monkey [8]; Cercopithecidae) was “inactive” and the ED50 (Monkey [8]; [31]) was 0.6 mg/kg. The PDC (Monkey [3]) was “no physical dependence capacity”.

In the case of `CN1CC[C@]2(C)CC1Cc1ccc(O)cc12` (stereo in doubt; form 3) [listing 2 of 2 here], the ED50 (Monkey [8]) is reported as 1.8 mg/kg.

`CN1CC[C@]23c4c5ccc(O)c4O[C@H]2[C@@H](O)C=C[C@H]3[C@H]1C5` [MORPHINE] was tested, and the Antagonist potency (Monkey [16]) was “inactive”, the PDC (Monkey [17]) was “Active” and the ED50 (Monkey [8]; [31]) was 1.2 mg/kg.

In the case of `CCCCCCCCCCN1CCC(C(=O)CC)(c2cccc(O)c2)CC1`, the ED50 (Mus musculus [18]) is reported as “inactive”, the ED50 [19] is reported as 600 nM and the ED50 [20] is reported as 500 nM. The Ratio (Mus musculus [21]) was 1.2.

Work on `CCCCCCCCN1CCC(C(=O)CC)(c2cccc(O)c2)CC1` yielded an ED50 (Mus musculus [11]) of 26500 nM, a Ratio (Mus musculus [22]) of 1 and an ED50 [23] of 200 nM. The ED50 [20] was 200 nM.

Work on `CN1CC[C@]2(C)CC1Cc1ccc(O)cc12` (stereo in doubt; form 2) yielded an ED50 (Monkey [8]) of 3.2 mg/kg.

`CN1CC[C@]2(C)CC1Cc1ccc(O)cc12` (stereo in doubt; form 1) [listing 1 of 2 here] gave an ED50 (Monkey [8]) of 22.9 mg/kg.

`CCCCCCN1CCC(C(=O)CC)(c2cccc(O)c2)CC1` showed an ED50 (Mus musculus [5]) of 7.5, a Ratio (Mus musculus [22]) of 2 and an ED50 (Mus musculus [7]) of 20 nM. It also gave an ED50 (Mus musculus [24]) of 40 nM.

For `CC1C2Cc3ccc(O)cc3[C@]1(C)CCN2C` (stereo in doubt; form 2), the ED50 (Monkey [8]) was 1.2 mg/kg.

In the case of `COc1ccc2c3c1O[C@H]1[C@@H](O)C=C[C@H]4[C@@H](C2)N(C)CC[C@@]341` [CODEINE], the Antagonist potency (Monkey [1]) is reported as “inactive”, the PDC (Monkey [2]) is reported as “Partially active” and the ED50 (Monkey [8]; [31]) is reported as 7.5 mg/kg.

`CC1C2Cc3ccc(O)cc3[C@@H]1CCN2C` (stereo in doubt; form 1) was tested, and the ED50 (Monkey [8]) was 1.1 mg/kg.

In the case of `CCCCCCCCCN1CCC(C(=O)CC)(c2cccc(O)c2)CC1`, the ED50 (Mus musculus [18]) is reported as “inactive”, the Ratio (Mus musculus [22]) is reported as 1 and the ED50 [23] is reported as 700 nM. The ED50 [20] was 700 nM.

Compound `CCCCCN1CCC(C(=O)CC)(c2cccc(O)c2)CC1` has an ED50 (Mus musculus [5]) of 0.78, a Ratio (Mus musculus [22]) of 3.8 and an ED50 (Mus musculus [7]) of 8 nM. For the same compound, the ED50 (Mus musculus [24]) was 30 nM.

With `CN1CC[C@]2(C)CC1Cc1ccc(O)cc12` (stereo in doubt; form 1) [listing 2 of 2 here] the Antagonist potency (Monkey [1]) was “inactive” and the PDC (Monkey [25]) was “no physical dependence capacity”.

`CCC(=O)C1(c2cccc(O)c2)CCN(C)CC1` [KETOBEMIDONE] was tested, and the ED50 (Mus musculus [5]) was 2.1, the ED50 [26] was 70 nM and the ED50 [27] was 7 nM. For the same compound, the Ratio [28] was 7.

In the case of `CCCN1CCC(C(=O)CC)(c2cccc(O)c2)CC1`, the ED50 (Mus musculus [5]) is reported as 16, the ED50 (Mus musculus [7]) is reported as 200 nM and the Ratio (Mus musculus [29]) is reported as 4. For the same compound, the ED50 (Mus musculus [30]) was 800 nM.

`CCC[C@]12CCN(C)C(Cc3ccc(O)cc31)[C@@H]2C` was tested, and the Antagonist potency (Monkey [1]) was “inactive”, the PDC (Monkey [17]) was “high physical dependence capacity” and the PDC (Monkey [3]) was “high physical dependence capacity”.
